Experimental data as given in patent US20240358773A1, “Parabacteroides Goldsteinii to Treat or Prevent Inflammatory and AutoImmune Diseases” (Joslin Diabetes Center, priority 2023, published 2024).
One block for each compound: values may come before it.

Assays:
class III PI3K = class III PI3K (Mus musculus, UniProt Q6PF93); test: Inhibition of autophagosome formation in EV-treated BMDCs, IL-10
[1] = system: colonic lamina propria (cLP) cells; test: A2a blockade in antibiotic-pretreated mice given live or killed ASF519, flow cytometry of colonic lamina propria cells; type: in vivo, mouse; settings: daily i.p. injection
[2] = system: fusion of autophagosomes with lysosomes; test: Inhibition of autophagosome-lysosome fusion in EV-treated BMDCs, IL-10

Chain of class III PI3K (Q6PF93 whole entry): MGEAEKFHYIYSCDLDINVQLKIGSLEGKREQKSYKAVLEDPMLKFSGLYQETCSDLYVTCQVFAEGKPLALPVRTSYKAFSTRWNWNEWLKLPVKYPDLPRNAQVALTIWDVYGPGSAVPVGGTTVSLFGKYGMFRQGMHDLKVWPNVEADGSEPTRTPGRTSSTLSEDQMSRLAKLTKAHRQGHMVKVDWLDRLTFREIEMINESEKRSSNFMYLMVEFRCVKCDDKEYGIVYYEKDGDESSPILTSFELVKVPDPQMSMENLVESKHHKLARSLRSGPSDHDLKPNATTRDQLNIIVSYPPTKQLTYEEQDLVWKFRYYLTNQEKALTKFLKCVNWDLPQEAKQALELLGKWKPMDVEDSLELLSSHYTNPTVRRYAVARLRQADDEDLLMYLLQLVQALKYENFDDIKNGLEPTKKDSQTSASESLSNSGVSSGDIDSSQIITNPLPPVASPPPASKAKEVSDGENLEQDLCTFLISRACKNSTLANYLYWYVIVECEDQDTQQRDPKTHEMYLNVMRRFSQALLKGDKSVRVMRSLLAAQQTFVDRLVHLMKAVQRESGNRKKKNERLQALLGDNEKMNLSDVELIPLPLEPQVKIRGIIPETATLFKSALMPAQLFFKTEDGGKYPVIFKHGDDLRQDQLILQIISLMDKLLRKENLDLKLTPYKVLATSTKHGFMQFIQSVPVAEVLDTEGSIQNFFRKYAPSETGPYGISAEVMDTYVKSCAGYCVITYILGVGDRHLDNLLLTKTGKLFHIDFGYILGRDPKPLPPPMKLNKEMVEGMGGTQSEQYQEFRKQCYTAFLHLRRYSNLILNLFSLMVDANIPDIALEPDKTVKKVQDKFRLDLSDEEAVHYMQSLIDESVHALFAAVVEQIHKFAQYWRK
Chain of class III PI3K (Q8VD65 whole entry partner): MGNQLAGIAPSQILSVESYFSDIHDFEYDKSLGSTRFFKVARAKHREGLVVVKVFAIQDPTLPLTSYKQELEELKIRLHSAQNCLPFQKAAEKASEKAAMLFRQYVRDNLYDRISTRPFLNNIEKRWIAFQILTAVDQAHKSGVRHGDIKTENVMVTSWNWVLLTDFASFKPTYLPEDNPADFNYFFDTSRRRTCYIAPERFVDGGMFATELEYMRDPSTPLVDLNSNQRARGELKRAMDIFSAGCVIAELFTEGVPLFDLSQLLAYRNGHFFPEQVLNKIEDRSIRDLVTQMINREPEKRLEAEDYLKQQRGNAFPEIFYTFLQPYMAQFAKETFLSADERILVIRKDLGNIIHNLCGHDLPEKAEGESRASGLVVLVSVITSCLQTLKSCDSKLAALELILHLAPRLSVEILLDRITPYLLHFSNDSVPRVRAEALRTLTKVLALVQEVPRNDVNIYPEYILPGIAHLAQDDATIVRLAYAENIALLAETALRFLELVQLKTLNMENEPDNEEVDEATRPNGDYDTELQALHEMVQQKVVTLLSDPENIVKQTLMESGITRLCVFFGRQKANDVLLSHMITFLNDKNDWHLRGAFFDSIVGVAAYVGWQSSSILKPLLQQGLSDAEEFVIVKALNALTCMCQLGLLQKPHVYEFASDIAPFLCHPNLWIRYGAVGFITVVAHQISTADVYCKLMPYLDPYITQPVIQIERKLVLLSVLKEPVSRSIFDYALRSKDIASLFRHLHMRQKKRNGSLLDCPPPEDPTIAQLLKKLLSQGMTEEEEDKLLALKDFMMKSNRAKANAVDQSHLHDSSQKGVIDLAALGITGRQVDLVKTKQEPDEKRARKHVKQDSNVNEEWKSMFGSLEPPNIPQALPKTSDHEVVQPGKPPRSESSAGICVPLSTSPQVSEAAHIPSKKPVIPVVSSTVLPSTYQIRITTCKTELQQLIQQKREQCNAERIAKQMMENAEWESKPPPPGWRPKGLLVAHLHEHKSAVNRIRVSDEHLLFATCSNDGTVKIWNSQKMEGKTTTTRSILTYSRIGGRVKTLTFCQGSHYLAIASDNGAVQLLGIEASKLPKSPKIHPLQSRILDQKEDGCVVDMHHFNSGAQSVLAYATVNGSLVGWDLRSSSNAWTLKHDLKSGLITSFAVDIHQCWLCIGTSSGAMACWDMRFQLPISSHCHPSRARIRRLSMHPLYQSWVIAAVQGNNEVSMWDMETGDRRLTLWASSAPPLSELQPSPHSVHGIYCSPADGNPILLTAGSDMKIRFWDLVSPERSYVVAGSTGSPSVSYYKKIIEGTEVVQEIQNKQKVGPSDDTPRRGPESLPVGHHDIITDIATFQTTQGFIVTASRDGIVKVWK
Chain of class III PI3K (O88597 whole entry partner): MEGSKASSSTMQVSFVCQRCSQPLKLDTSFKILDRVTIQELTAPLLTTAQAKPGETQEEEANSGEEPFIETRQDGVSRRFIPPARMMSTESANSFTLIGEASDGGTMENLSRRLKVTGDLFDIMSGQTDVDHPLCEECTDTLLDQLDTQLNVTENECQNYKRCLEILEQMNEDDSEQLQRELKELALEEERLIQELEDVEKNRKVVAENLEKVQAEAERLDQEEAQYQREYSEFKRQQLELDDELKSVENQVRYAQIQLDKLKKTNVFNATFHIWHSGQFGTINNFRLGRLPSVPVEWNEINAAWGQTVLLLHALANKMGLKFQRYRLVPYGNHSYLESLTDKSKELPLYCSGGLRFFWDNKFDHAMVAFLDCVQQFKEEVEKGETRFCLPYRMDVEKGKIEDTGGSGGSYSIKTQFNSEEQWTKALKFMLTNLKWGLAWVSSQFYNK
Chain of class III PI3K (Q8CDJ3 whole entry partner): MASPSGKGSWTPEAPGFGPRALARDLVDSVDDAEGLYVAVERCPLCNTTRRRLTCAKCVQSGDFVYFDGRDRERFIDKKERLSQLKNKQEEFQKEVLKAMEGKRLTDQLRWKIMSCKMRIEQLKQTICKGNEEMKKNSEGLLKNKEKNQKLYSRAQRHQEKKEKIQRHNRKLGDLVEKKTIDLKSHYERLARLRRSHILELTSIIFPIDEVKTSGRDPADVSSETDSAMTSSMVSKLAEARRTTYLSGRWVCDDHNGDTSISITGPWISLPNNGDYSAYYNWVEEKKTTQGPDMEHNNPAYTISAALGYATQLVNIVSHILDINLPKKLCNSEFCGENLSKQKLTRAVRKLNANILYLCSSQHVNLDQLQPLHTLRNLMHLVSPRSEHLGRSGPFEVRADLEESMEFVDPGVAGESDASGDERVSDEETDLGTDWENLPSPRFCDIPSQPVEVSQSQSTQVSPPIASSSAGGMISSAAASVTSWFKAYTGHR

effect on IL-10 induction of EV-treated BMDCs (class III PI3K): efficiently blocked IL-10 induction
Structure (SMILES): Cn1cnc(N)c2ncnc1-2 [3-methyladenine]

Structure (SMILES): Nc1nc(NCCc2ccc(O)cc2)nc2nc(-c3ccco3)nn12 [ZM241385]
effect of A2a antagonist on ASF519-induced IL-10 producing DCs [1]: significantly decreased
effect of A2a blockage on ASF519-decreased B cells and CD11b+ CD45+ cells [1]: restored

Structure (SMILES): CCN(CCO)CCCC(C)Nc1ccnc2cc(Cl)ccc12 (stereo not shown) [hydroxychloroquine]
effect on IL-10 induction of EV-treated BMDCs [2]: efficiently blocked IL-10 induction
